Counter-ions that a name gives are not always drawn.
Key:
Format in all cases: cell-based
dengue virus (DENV) = test: microbe, parasite or virus in culture; details: Dengue virus, Vero, 120 h, read-out: Percent viral inhibition DENY
[1] = test system: Chikungunya virus (CHIKV); test: microbe, parasite or virus in culture; details: Chikungunya virus, Vero, 48 h, read-out: Percent viral inhibition CHKV
Marburg virus (MARV) = test: organism not typed; details: Vero, 72 h, read-out: Percent viral inhibition MARV

| Compound | inhibition at 1 µM (dengue virus (DENV)) | inhibition at 1 µM [1] | inhibition at 1 µM (Marburg virus (MARV)) |
| --- | --- | --- | --- |
| CNC(=O)CN1CCN(Cc2cc(Oc3ccc(N4CCNCC4)nc3)nc(-c3cc(Cl)cc(Cl)c3)c2)CC1 [Example 1, 2-(4-((2-(3,5-dichlorophenyl)-6-((6-(piperazin-1-yl)pyridin-3-yl)oxy)pyridin-4-yl)methyl)piperazin-1-yl)-N-methylacetamide] | 0% | 6.99% | 0% |
| CC(=O)NCC1(O)CCN(Cc2cc(Oc3ccc(N4CCNCC4)nc3)nc(-c3cc(Cl)cc(Cl)c3)c2)CC1 [Example 2, N-((1-((2-(3,5-dichlorophenyl)-6-((6-(piperazin-1-yl)pyridin-3-yl)oxy)pyridin-4-yl)methyl)-4-hydroxy-piperidin-4-yl)methyl)acetamide] | 34.3% | 33.8% | 60.4% |
| O=C(O)CC1CCN(Cc2cc(Oc3ccc(N4CCNCC4)nc3)nc(-c3cc(Cl)cc(Cl)c3)c2)CC1 [Example 4, 2-(1-((2-(3,5-dichlorophenyl)-6-((6-(piperazin-1-yl)pyridin-3-yl)oxy)pyridin-4-yl)methyl)piperidin-4-yl) acetic acid] | 16.6% | 18.4% | 70.8% |
| COC(=O)NCC1(O)CCN(Cc2cc(Oc3ccc(N4CCNCC4)nc3)nc(-c3cc(Cl)cc(Cl)c3)c2)CC1 [Example 6, methyl ((1-((2-(3,5-dichlorophenyl)-6-((6-(piperazin-1-yl)pyridin-3-yl)oxy)pyridin-4-yl)methyl)-4-hydroxypiperidin-4-yl)methyl)carbamate] | 0% | 0% | 0% |
| O=S(=O)(O)CCC1CCN(Cc2cc(Oc3ccc(N4CCNCC4)nc3)nc(-c3cc(Cl)cc(Cl)c3)c2)CC1 [Example 7, 2-(1-((2-(3,5-dichlorophenyl)-6-((6-(piperazin-1-yl)pyridin-3-yl)oxy)pyridin-4-yl)methyl)piperidin-4-yl) ethanesulfonic acid] | 12.9% | 9.36% | 51.9% |
| O=S(=O)(O)CC1CCN(Cc2cc(Oc3ccc(N4CCNCC4)nc3)nc(-c3cc(Cl)cc(Cl)c3)c2)CC1 [Example 8, (1-((2-(3,5-dichlorophenyl)-6-((6-(piperazin-1-yl)pyridin-3-yl)oxy)pyridin-4-yl)methyl)piperidin-4-yl)methanesulfonic acid] | 14.7% | 1.77% | 10.9% |
| CC(=O)NCC1CCN(Cc2cc(Oc3ccc(N4CCN(CC(=O)O)CC4)nc3)nc(-c3cc(Cl)cc(Cl)c3)c2)CC1 [Example 10] | 8.5% | 13.1% | 34.8% |
| CC(=O)NCC1CCN(Cc2cc(Oc3ccc(N4CCN(CCC(=O)O)CC4)nc3)nc(-c3cc(Cl)cc(Cl)c3)c2)CC1 [Example 11, 3-(4-(5-((4-((4-(Acetamidomethyl)piperidin-1-yl)methyl)-6-(3,5-dichlorophenyl)pyridin-2-yl)oxy)pyridin-2-yl)piperazin-1-yl)propanoic acid, 4 hydrochloride] | 30.2% | 17.9% | 41.6% |
| CC(=O)NCC1CCN(Cc2cc(Oc3ccc(N4CCN(CCS(C)(=O)=O)CC4)nc3)nc(-c3cc(Cl)cc(Cl)c3)c2)CC1 [Example 12, N-((1-((2-(3,5-dischlorophenyl)-6-((6-(4-(2-(methylsulfonyl)ethyl)piperazin-1-yl)pyridin-3-yl)oxy)pyridin-4-yl)methyl)piperidin-4-yl)methyl)acetamide] | 58.3% | 24.7% | 44.5% |
| CC(=O)NCC1CCN(Cc2cc(Oc3ccc(N4CCN(CCC(N)=O)CC4)nc3)nc(-c3cc(Cl)cc(Cl)c3)c2)CC1 [Example 13, 3-(4-(5-((4-((4-(acetamidomethyl)piperidin-1-yl)methyl)-6-(3,5-dichlorophenyl)pyridin-2-yl)oxy)pyridin-2-yl)piperazin-1-yl)propanamide] | 26.5% | 15.9% | 25.4% |
| CC(=O)NCC1CCN(Cc2cc(Oc3ccc(N4CCN(CCc5nnn[nH]5)CC4)nc3)nc(-c3cc(Cl)cc(Cl)c3)c2)CC1 [Example 14] | 0% | 3.02% | 17.3% |
| CC(=O)NCC1CCN(Cc2cc(Oc3ccc(N4CCN(C(C)CCS(C)(=O)=O)CC4)nc3)nc(-c3cc(Cl)cc(Cl)c3)c2)CC1 (stereo not drawn) [Example 16] | 41.7% | 4.14% | 28.6% |
| CNC(=O)NCC1CCN(Cc2cc(Oc3cnc(N4CCN(CCC(C)[S+](C)[O-])CC4)nc3)nc(-c3cc(Cl)cc(Cl)c3)c2)CC1 (stereo not drawn) [Example 17, 1-((1-((2-(3,5-chlorophenyl)-6-((2-(4-(3-(methylsulfinyl)butyl)piperazin-1-yl)pyrimidin-5-yl)oxy)pyridin-4-yl)methyl)piperidin-4-yl)methyl)-3-methylurea] | 57.4% | 7.16% | 52.9% |
| CC(=O)NCC1CCN(Cc2cc(Oc3cnc(N4CCN(C(C)CCS(C)(=O)=O)CC4)nc3)nc(-c3cc(Cl)cc(Cl)c3)c2)CC1 (stereo not drawn) [Example 19, N-((1-((2-(3,5-dichlorophenyl)-6-((2-(4-(4-(methylsulfonyl)butan-2-yl)piperazin-1-yl)pyrimidin-5-yl)oxy)pyridin-4-yl)methyl)piperidin-4-yl)methyl)acetamide] | 35.5% | 21.6% | 79.8% |
| CC(CO)N1CCN(c2ncc(Oc3cc(CN4CCC(CC(=O)O)CC4)cc(-c4cc(Cl)cc(Cl)c4)n3)cn2)CC1 (stereo not drawn) [Example 21, 2-(1-((2-(3,5-dichlorophenyl)-6-((2-(4-(1-hydroxypropan-2-yl)piperazin-1-yl)pyrimidin-5-yl)oxy)pyridin-4-yl)methyl)piperidin-4-yl)acetic acid] | 8.18% | 26.2% | 46.4% |
| O=C(O)CC1CCN(Cc2cc(Oc3cnc(N4CCN(C5CC(O)C5)CC4)nc3)nc(-c3cc(Cl)cc(Cl)c3)c2)CC1 (stereo not drawn) [Example 22, 2-(1-((2-(3,5-dichlorophenyl)-6-((2-(4-(3-hydroxycyclobutyl)piperazin-1-yl)pyrimidin-5-yl)oxy)pyridin-4-yl)methyl)piperidin-4-yl)acetic acid] | 64.4% | 26.8% | 52.5% |
| O=C(O)CC1CCN(Cc2cc(Oc3cnc(N4CCN(C(CO)CO)CC4)nc3)nc(-c3cc(Cl)cc(Cl)c3)c2)CC1 [Example 23, 2-(1-((2-(3,5-dichlorophenyl)-6-((2-(4-(1,3-dihydroxypropan-2-yl)piperazin-1-yl)pyrimidin-5-yl)oxy)pyridin-4-yl)methyl)piperidin-4-yl)acetic acid] | 11% | 21.6% | 52.5% |
| C[C@]1(O)C[C@@H](N2CCN(c3ncc(Oc4cc(CN5CCC(CC(=O)O)CC5)cc(-c5cc(Cl)cc(Cl)c5)n4)cn3)CC2)C1 [Example 24, 2-(1-((2-(3,5-dichlorophenyl)-6-((2-(4-((1s,3s)-3-hydroxy-3-methylcyclobutyl)piperazin-1-yl)pyrimidin-5-yl)oxy)pyridin-4-yl)methyl)piperidin-4-yl)acetic acid] | 25.8% | 34.6% | 63.1% |

— patent US20230011571A1, “SMALL MOLECULE FURIN INHIBITORS FOR TREATING INFECTIOUS DISEASES” (BP Asset V, Inc., priority 2019, published 2023)
